Assay results taken from the supplement of paper PMC3974653.
Where a name gives a salt, the structure may show the parent alone.

test system: MTT (mouse pheochromocytoma); assay: IC50 of cell viability (ATP content); conditions: (24 or 48 h)
Method in brief: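 Each well of a white 1536-well plate received 5 µl of MTT mouse pheochromocytoma cells at 200,000 cells/ml in DMEM containing 5% FBS and 1% horse serum. After overnight culture at 37°C, 5% CO2, cells were exposed for 24 or 48 hrs to 23 nl of library compound in DMSO, pinned at 8 final concentrations from 0.5 nM to 46 µM. CellTiter-Glo luminescence was read after 15 minutes, and IC50 was obtained from a four-parameter logistic fit of signals normalised to positive-control and DMSO wells.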

Compound | IC50 of cell viability [µM]
COC1=CC2=C(C=C1OC)[C@@]34CCN5CC/6=C/COC7CC(=O)N2C3[C@H]7[C@@H]6C[C@H]45 (stereo partly drawn) [BRUCINE] | > 46
CCC/C=C/C=C/C(=O)OC1/C(=C/C(=O)OC)CC2CC(C(C)O)OC(=O)CC(O)CC3CC(OC(C)=O)C(C)(C)C(O)(CC4C/C(=C/C(=O)OC)CC(C=CC(C)(C)C1(O)O2)O4)O3 (stereo not drawn) [BRYOSTATIN-1] | > 46
CCCC(=O)Nc1ncnc2c1ncn2C1OC2COP(=O)(O)OC2C1OC(=O)CCC (stereo not drawn) [BUCLADESINE] | > 46
CCCCC1C(=O)NC(=O)N(C2CCCCC2)C1=O (stereo not drawn) [BUCOLOME] | > 46
C[C@]12CC[C@H](O)C[C@H]1CCC1C2CC[C@]2(C)[C@@H](c3ccc(=O)oc3)C[C@H]3O[C@]132 (stereo partly drawn) [BUFOGENIN] | > 46
CCCCNC(=N)NC(=N)N [BUFORMIN HYDROCHLORIDE] | > 46
CCCCN1CCCC1C(=O)Nc1c(C)cc(C)cc1C (stereo not drawn) [BUMECAINUM] | > 46
CCCC(=O)N1CCCN(c2nc(N)c3cc(OC)c(OC)cc3n2)CC1 [BUNAZOSIN HYDROCHLORIDE] | > 46
CCOC(=O)c1cnc2cc(OCC(C)C)c(OCC(C)C)cc2c1O [BUQUINOLATE] | > 46
O=C1CC2(CCCC2)CC(=O)N1CCCCN1CCN(c2ncccn2)CC1 [BUSPIRONE] | > 46
CCCCOC(=O)c1ccc(N)cc1 [BUTAMBEN] | > 46
CCC(C(=O)OCCN(CC)CC)c1ccccc1 (stereo not drawn) [BUTETAMATUM] | > 46
CCCC[N+]1(C)C2CC(OC(=O)C(CO)c3ccccc3)CC1C1OC12 (stereo not drawn) [BUTYLSCOPOLAMMONIUM] | > 46
CCOC(=O)O[C@@H](C)OC(=O)[C@@H]1[N@]2[C@@H](SC1(C)C)[C@H](NC(=O)[C@@H](N)C3=CC=CC=C3)C2=O [Bacampicillin hydrochloride] | > 46
CC[C@H](C)[C@H](N)\C1=N\[C@@H](CS1)C(=O)N[C@@H](CC(C)C)C(=O)N[C@@H](CCC(O)=O)C(=O)N[C@H]([C@@H](C)CC)C(=O)N[C@@H]2CCCCNC(=O)[C@@H](CC(N)=O)NC(=O)[C@@H](CC(O)=O)NC(=O)[C@@H](CC3=CN=C[NH]3)NC(=O)[C@@H](CC4=CC=CC=C4)NC(=O)[C@H](NC(=O)[C@@H](CCCN)NC2=O)[C@@H](C)CC [Bacitracin] | > 46
CN(C)C(=O)Oc1cc(OC(=O)N(C)C)cc([C@@H](O)CNC(C)(C)C)c1 [Bambuterol hydrochloride] | > 46
CCCCNCC(O)c1ccc(O)cc1 (stereo not drawn) [Bametano] | > 46
CCN(CCO)CCn1c(Cc2ccccc2)nc2c1c(=O)n(C)c(=O)n2C [Bamifylline Hydrochloride] | > 46
CCC1(CC)C(=O)NC(=O)NC1=O [Barbital] | > 46
COC(=O)C1=C(C)NC(C)=C(C(=O)O[C@H]2CCN(Cc3ccccc3)C2)C1c1cccc([N+](=O)[O-])c1 (stereo partly drawn) [Barnidipine] | > 46
Cc1c(-c2ccc(O)cc2)n(Cc2ccc(OCCN3CCCCCC3)cc2)c2ccc(O)cc12 [Bazedoxifene] | > 46
CCC(=O)OCC(=O)C1(OC(=O)CC)C(C)CC2C3CCC/4=C/C(=O)/C=C\C4(C)C3(Cl)C(O)CC12C (stereo not drawn) [Beclazone] | > 46
C[C@H]1C[C@H]2[C@@H]3CCC4=CC(=O)C=C[C@]4(C)[C@@]3(Cl)[C@@H](O)C[C@]2(C)[C@@]1(O)C(=O)CO [Beclomethasone] | > 46
